Measurements published in patent US20100048638A1, “HEPARAN SULFATE INHIBITORS” (ZACHARON PHARMACEUTICALS, INC., priority 2008, published 2010).

Columns and labels:
[1] = test system: FGF2 binding to heparan sulfate in human cervical cancer cells (HeLa); experiment: FGF2 binding to heparan sulfate in HeLa cells, flow cytometry; assay type: cell-based; settings: various concentrations
Description: (§1) FIG. 2 illustrates the impact of 4-(4-(3,4-dimethoxyphenyl)-6-phenylpyrimidin-2-yl)morpholine on the ability of FGF2 to bind to heparan sulfate in human cervical cancer cells (HeLa). FGF2 binding to heparan sulfate is measured by culturing HeLa cells in the presence of the heparan sulfate modulator. After 2 days of growth, the cells are released with 5 mM EDTA and probed with biotinylated FGF2 for 30 minutes on ice. After washing unbound FGF2, bound FGF2 is detected with streptavidin-Cy5-PE. After washing to remove unbound streptavidin-Cy5-PE, the bound probe is quantified using a flow cytometry. The heparan sulfate inhibitors are tested on at least three independent occasions, in duplicate over a dose range. Heparan sulfate specificity is determined by probing with lectins to other glycan classes (chondroitin sulfate, O-linked, N-linked, etc.). FIG. 3 illustrates the impact of 4-(4-(3,4-dimethoxyphenyl)-6-phenylpyrimidin-2-yl)morpholine on the sulfation of heparan sulfate found in human cervical cancer cells (HeLa). The sulfation of heparan sulfate is determined by culturing HeLa cells in the presence of the heparan sulfate modulator. Heparan sulfate is isolated from treated and untreated cells by lysing the cells in 0.1 N NaOH. After neutralization, the cell lysate is treated with pronase to degrade the core proteins. Subsequently, the heparan sulfate is purified on diethylaminoethyl (DEAE) resin, eluted with 1.0 M NaCl, desalted using gel filtration and dried. To characterize the composition of heparan sulfate produced in the presence of the heparan sulfate modulator, the isolate heparan sulfate is digested to disaccharides using a blend of heparin lyase I, II, and III (from flavobacterium heparinum). The disaccharides are quantified by HPLC using a propac PA1 column using known heparan sulfate disaccharides as standards. Specifically, FIG. 3A illustrates the impact of 4-(4-(3,4-dimethoxyphenyl)-6-phenylpyrimidin-2-yl)morpholine on the amount of specific disaccharide units; and FIG. 3B illustrates the impact of 4-(4-(3,4-dimethoxyphenyl)-6-phenylpyrimidin-2-yl)morpholine on the amount of specific glucosamine and uronic acid modifications.
as §1, with “FIG. 4” for “FIG. 2”, “of 7-((3-chlorophenyl)(pyridin-2-ylamino)methyl)-2-methylquinolin-8-ol” for “of 4-(4-(3,4-dimethoxyphenyl)-6-phenylpyrimidin-2-yl)morpholine”, “FIG. 5” for “FIG. 3”, “heparinum). […]” for “heparinum). The disaccharides are quantified by HPLC using a propac PA1 column using known heparan sulfate disaccharides as standards. Specifically, FIG. 3A illustrates the impact of 4-(4-(3,4-dimethoxyphenyl)-6-phenylpyrimidin-2-yl)morpholine on the amount of specific disaccharide units; and FIG. 3B illustrates the impact of 4-(4-(3,4-dimethoxyphenyl)-6-phenylpyrimidin-2-yl)morpholine on the amount of specific glucosamine and uronic acid modifications.”

[2] = test system: synthesis of PAPs / heparan sulfate sulfation; settings: cited from earlier work
[3] = test system: cultured primary human fibroblast from MPS patients; experiment: In vitro MPS model: accumulation of GAG fragments in fibroblasts; assay type: cell-based
Description: Substrate reduction therapy (SRT) is validated for MPS. The non-specific inhibitor of sulfation, sodium chlorate is used herein for such validation. […] In certain instances, in vitro MPS models used herein are based on measuring the accumulation of GAG fragments in cultured primary human fibroblast from MPS patients. In some instances, the GAGs that accumulate in MPS patients are much smaller than normal tissue GAGs and they lack a core protein on their reducing termini. Based on these features the in vitro MPS model used in certain instances herein is based on a method of tagging reducing ends of the GAGs with a detectable label and analyzing (i.e., detecting and/or measuring) the detectable labels using a device suitable for detecting the label (e.g., an HPLC with a fluorimeter).

[4] = test system: 6-O sulfation of heparan sulfate; experiment: Change in the structure (sulfation) of heparan sulfate in cultured human cells; assay type: cell-based; settings: FIG. 21A
Description: FIG. 2 illustrates the impact of 4-(4-(3,4-dimethoxyphenyl)-6-phenylpyrimidin-2-yl)morpholine on the ability of FGF2 to bind to heparan sulfate in human cervical cancer cells (HeLa). FGF2 binding to heparan sulfate is measured by culturing HeLa cells in the presence of the heparan sulfate modulator. After 2 days of growth, the cells are released with 5 mM EDTA and probed with biotinylated FGF2 for 30 minutes on ice. After washing unbound FGF2, bound FGF2 is detected with streptavidin-Cy5-PE. After washing to remove unbound streptavidin-Cy5-PE, the bound probe is quantified using a flow cytometry. The heparan sulfate inhibitors are tested on at least three independent occasions, in duplicate over a dose range. Heparan sulfate specificity is determined by probing with lectins to other glycan classes (chondroitin sulfate, O-linked, N-linked, etc.). FIG. 3 illustrates the impact of 4-(4-(3,4-dimethoxyphenyl)-6-phenylpyrimidin-2-yl)morpholine on the sulfation of heparan sulfate found in human cervical cancer cells (HeLa). The sulfation of heparan sulfate is determined by culturing HeLa cells in the presence of the heparan sulfate modulator. […] The disaccharides are quantified by HPLC using a propac PA1 column using known heparan sulfate disaccharides as standards. […]
(§2) After sacrifice, the liver and tumor were analyzed for changes in the structure of heparan sulfate.

SKOV3 cells = experiment: Human ovarian cancer model, SKOV3 subcutaneous tumors in female nude mice; assay type: in vivo; settings: 1, 3 and 10 mg/kg/day, two IP injections daily
Description: Compound 9 was tested for anti-cancer activity in a Human ovarian cancer model. Briefly, 5 million SKOV3 cells were injected in 100 ul mixed with matrigel subcutaneously into female nude mice. The tumors were allowed to grow to 0.1 cm^3 then the mice were randomized into four groups (Vehicle, 1, 3, and 10 mg/kg/day). Each group received the indicated daily dose divided into two IP injections. Vehicle alone received the formulation only.

heparan sulfate = experiment: Heparan sulfate structure in liver and tumor after sacrifice, SKOV3 model; assay type: in vivo, mice
Description: as §2

[5] = in vitro model of MPS IIIA, human MPS IIIA fibroblasts

SMILES	inhibition of FGF-2 binding to heparan sulfate [1]	GAG accumulation [3, 5]	inhibition of heparan sulfate biosynthesis ([3]; human MPS IIIA fibroblasts)	further results
CCc1cc(=O)oc2cc(Oc3ccc([N+](=O)[O-])cc3C(F)(F)F)ccc12 [compound 6, 4-ethyl-7-(4-nitro-2-(trifluoromethyl)phenoxy)-2H-chromen-2-one]	inhibition of FGF-2 binding	–	–	–
[Na+].[O-][Cl+2]([O-])[O-] [sodium chlorate, reference compound]	–	reduction of GAG accumulation	–	synthesis of PAPs (sulfate donor) ([2]; 30-60 mM): inhibits the synthesis of PAPs; sulfation of heparan sulfate produced by cells ([2]; cells grown in the presence of the substance): reduced sulfation; GAG accumulation ([3]; in vitro model of MPS I): reduction of GAG accumulation; GAG accumulation ([3]; in vitro model of MPS II): reduction of GAG accumulation
C[S+]([O-])c1ccc(-c2nc(-c3ccc(F)cc3)c(-c3ccncc3)[nH]2)cc1 (stereo not drawn) [compound 9]	–	–	–	6-O sulfation of heparan sulfate [4]: inhibits the 6-O sulfation of heparan sulfate; tumor growth (SKOV3 cells): blocked tumor growth at all doses tested; heparan sulfate biosynthesis in liver (heparan sulfate; liver of treated animals, after sacrifice, 1, 3 and 10 mg/kg/day IP): altered in the liver of treated animals in a dose dependent manner; changes in the structure of heparan sulfate in tumor (heparan sulfate; small tumor remaining in treated animals, after sacrifice): No changes were detected
CC(C)(C)C1CCc2c(sc3nc(C(F)(F)F)[nH]c(=O)c23)C1 (stereo not drawn) [compound 7]	inhibition of FGF-2 binding	reduce GAG accumulation	inhibition of heparan sulfate biosynthesis	–
Cc1ccc2ccc(C(Nc3ccccn3)c3ccccc3F)c(O)c2n1 (stereo not drawn) [compound 3, 7-((2-fluorophenyl)(pyridin-2-ylamino)methyl)-2-methylquinolin-8-ol]	inhibition of FGF-2 binding	–	–	–
O=C(NC(=S)N(Cc1ccccc1)Cc1ccccc1)c1cccc(Cl)c1 [compound 8]	inhibition of FGF-2 binding	reduce GAG accumulation	inhibition of heparan sulfate biosynthesis	–
COc1ccc(-c2cc(-c3ccccc3)nc(N3CCOCC3)n2)cc1OC [compound 1, 4-(4-(3,4-dimethoxyphenyl)-6-phenylpyrimidin-2-yl)morpholine]	inhibition of FGF-2 binding	reduce GAG accumulation	inhibition of heparan sulfate biosynthesis	–
CC(C)C(=O)NC(c1cccs1)c1cc([N+](=O)[O-])c2cccnc2c1O (stereo not drawn) [compound 5, 7-((thiophen-2-yl)(isobutoylamino)methyl)-5-nitroquinolin-8-ol]	inhibition of FGF-2 binding	reduce GAG accumulation	inhibition of heparan sulfate biosynthesis	–
Cc1ccc2ccc(C(Nc3ccccn3)c3cccc(Cl)c3)c(O)c2n1 (stereo not drawn) [compound 2, 7-((3-chlorophenyl)(pyridin-2-ylamino)methyl)-2-methylquinolin-8-ol]	inhibition of FGF-2 binding	–	–	–
